According to patent publication US9296704B2, “Substituted pyrimidines as protein kinase inhibitors” (CELGENE AVILOMICS RESEARCH, INC., priority 2007, dated 2016):

Key:
[1] = biological target: T1, EGFR (WT) (Homo sapiens, UniProt P00533); assay: Omnia continuous-read kinase assay, EGFR (WT); assay type: biochemical; settings: read-out: EGFR inhibtion
T1 construct: purchased Invitrogen PV3872
In short: (§1)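 Enzyme pre-incubated 30 min at 27 °C with compound, then ATP/Y12-Sox peptide added; fluorescence (ex360/em485) read continuously 60 min in 20 mM Tris pH 7.5, 5 mM MgCl2, 0.2 mM DTT. WT: 5 nM enzyme, […]; T790M/L858R: 3 nM enzyme, […]. IC50 from initial velocities, variable-slope fit.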

[2] = biological target: T2, EGFR (T790M/L858R) (Homo sapiens, UniProt P00533, L858R/T790M); assay: Omnia continuous-read kinase assay, EGFR (T790M/L858R); assay type: biochemical; settings: read-out: EGFR (T790M/L858R) inhibiton
T2 construct: purchased BPS Bioscience 40350
In short: as §1

[3] = biological target: ErbB1 (Homo sapiens, UniProt P00533); assay: Z'-LYTE biochemical assay, ErbB1 kinase inhibition; settings: for inhibition at 0.01 µM: @ 10 nM
Sequence of ErbB1 (P00533 25-1210): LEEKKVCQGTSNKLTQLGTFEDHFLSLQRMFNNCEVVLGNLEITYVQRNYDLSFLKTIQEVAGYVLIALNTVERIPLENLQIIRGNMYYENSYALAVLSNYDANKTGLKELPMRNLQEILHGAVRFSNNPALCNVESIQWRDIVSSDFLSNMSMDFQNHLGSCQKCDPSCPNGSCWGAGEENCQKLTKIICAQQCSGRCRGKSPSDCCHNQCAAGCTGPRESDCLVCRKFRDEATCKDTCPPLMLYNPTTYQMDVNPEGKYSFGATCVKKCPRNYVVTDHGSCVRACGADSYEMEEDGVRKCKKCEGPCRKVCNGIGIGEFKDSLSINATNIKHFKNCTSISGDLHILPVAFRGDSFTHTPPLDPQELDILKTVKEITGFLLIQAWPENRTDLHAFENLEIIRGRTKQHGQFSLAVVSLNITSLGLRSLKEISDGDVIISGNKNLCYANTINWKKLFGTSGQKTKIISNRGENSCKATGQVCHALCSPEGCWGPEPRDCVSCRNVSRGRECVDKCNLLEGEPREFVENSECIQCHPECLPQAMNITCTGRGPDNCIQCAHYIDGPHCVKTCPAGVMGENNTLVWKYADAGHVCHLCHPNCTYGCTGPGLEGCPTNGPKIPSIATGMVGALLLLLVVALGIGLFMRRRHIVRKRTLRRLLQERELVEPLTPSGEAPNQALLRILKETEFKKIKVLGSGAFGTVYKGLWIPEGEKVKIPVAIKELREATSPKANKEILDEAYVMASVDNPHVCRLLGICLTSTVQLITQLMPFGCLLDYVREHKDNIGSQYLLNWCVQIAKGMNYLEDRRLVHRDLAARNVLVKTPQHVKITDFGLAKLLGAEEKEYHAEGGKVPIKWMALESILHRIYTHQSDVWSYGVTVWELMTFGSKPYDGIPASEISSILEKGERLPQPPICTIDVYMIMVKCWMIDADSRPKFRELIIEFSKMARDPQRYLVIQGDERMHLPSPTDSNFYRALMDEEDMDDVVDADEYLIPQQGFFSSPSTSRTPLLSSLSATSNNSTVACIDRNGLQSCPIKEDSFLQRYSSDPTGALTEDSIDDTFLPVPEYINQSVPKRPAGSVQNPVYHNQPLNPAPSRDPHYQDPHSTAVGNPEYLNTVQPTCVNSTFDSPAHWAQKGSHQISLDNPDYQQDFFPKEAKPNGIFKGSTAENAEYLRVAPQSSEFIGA
In short: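 Fluorescence-based coupled-enzyme Z′-LYTE format: kinase phosphorylation of a peptide substrate is read by differential protease cleavage of phosphorylated versus non-phosphorylated peptide.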

[4] = biological target: ErbB2 (Homo sapiens, UniProt P04626); assay: Z'-LYTE biochemical assay, ErbB2 kinase inhibition
Description: (§2) Compounds of the present invention were assayed as inhibitors of one or more of ErbB1, ErbB2, and/or ErbB4 in a manner substantially similar to the method described by Invitrogen Corp (Invitrogen Corporation, 1600 Faraday Avenue, Carlsbad, Calif., CA; http://www.invitrogen.com/downloads/Z-LYTE_Brochure—1205.pdf) using the Z′-LYTE™ biochemical assay procedure or similar biochemical assay. The Z′-LYTE™ biochemical assay employs a fluorescence-based, coupled-enzyme format and is based on the differential sensitivity of phosphorylated and non-phosphorylated peptides to proteolytic cleavage.

[5] = biological target: ErbB4 (Homo sapiens, UniProt Q15303); assay: Z'-LYTE biochemical assay, ErbB4 kinase inhibition
Sequence of ErbB4 (Q15303 26-1308): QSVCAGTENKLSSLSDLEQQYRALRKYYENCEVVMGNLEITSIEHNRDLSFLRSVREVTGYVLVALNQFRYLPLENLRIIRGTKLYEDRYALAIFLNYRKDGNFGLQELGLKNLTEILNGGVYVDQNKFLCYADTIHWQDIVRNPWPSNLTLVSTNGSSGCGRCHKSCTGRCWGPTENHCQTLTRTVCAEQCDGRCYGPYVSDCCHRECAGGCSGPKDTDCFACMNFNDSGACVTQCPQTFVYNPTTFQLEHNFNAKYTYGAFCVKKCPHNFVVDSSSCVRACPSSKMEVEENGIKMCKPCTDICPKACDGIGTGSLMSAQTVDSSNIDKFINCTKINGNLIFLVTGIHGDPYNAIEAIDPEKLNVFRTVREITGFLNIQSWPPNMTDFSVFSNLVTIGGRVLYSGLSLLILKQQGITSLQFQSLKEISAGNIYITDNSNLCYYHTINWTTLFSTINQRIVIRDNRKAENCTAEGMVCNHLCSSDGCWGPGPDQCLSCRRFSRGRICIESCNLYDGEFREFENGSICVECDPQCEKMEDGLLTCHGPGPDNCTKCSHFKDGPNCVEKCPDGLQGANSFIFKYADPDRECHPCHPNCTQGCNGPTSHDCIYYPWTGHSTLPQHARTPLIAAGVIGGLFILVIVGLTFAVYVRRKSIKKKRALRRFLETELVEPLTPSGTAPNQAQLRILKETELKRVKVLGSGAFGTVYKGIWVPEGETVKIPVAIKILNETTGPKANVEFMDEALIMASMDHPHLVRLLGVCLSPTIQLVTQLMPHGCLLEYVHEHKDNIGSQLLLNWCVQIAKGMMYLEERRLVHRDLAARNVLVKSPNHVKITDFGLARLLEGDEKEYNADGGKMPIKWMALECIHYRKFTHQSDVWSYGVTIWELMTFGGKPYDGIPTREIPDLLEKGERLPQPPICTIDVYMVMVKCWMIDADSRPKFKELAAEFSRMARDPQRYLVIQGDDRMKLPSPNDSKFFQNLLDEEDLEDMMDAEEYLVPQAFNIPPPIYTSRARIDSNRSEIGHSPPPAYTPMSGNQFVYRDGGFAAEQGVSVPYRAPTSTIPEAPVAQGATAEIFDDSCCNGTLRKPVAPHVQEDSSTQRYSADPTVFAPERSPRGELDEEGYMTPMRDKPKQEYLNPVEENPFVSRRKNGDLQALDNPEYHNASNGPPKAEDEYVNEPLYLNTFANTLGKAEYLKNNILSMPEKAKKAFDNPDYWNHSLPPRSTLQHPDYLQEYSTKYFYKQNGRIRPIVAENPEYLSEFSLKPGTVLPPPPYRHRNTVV
Description: as §2

[6] = biological target: BTK (Homo sapiens, UniProt Q06187); assay: Omnia assay for potency against BTK; assay type: biochemical; settings: read-out: BTK Inhibition
Sequence of BTK (Q06187 whole entry): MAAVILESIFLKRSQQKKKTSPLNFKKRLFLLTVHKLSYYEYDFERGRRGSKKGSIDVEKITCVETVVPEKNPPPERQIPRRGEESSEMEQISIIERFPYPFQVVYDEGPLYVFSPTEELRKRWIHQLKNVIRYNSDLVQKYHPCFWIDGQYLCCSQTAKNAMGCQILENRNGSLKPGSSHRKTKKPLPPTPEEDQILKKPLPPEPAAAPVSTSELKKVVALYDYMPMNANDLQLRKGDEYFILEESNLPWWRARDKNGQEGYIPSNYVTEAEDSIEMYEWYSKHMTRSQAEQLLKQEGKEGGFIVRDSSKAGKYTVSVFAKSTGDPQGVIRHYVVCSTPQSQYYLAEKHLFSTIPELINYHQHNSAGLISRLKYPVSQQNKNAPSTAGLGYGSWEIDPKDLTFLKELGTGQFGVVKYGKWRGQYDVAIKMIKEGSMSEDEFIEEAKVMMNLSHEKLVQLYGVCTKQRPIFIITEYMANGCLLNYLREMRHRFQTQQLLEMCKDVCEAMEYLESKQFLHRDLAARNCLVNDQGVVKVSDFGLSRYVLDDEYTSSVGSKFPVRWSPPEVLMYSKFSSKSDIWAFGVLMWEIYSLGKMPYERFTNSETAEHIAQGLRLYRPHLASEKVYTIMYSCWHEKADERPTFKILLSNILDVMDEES
In short: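 BTK (5 nM) was pre-incubated 30 min at 27° C with serially diluted compounds in Tris pH 7.5/MgCl2 buffer, then started with […] and Y5-Sox peptide 10 mM (ATP KMapp ~36 mM). Fluorescence (ex360/em485) was read continuously over 60 min. IC50 came from initial velocities using a variable-slope fit.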

[7] = system: BTK signaling in Ramos cells; assay: BTK Ramos cellular assay (PLCγ2 phosphorylation); assay type: cell-based; settings: Homo sapiens; Ramos cells, PLCγ2 phosphorylation; read-out: BTK Inhibition
Description: Compounds 1-13 and (I-52) were assayed in Ramos human Burkitt lymphoma cells. Ramos cells were grown in suspension in T225 flasks, spun down, resuspended in 50 mls serum-free media and incubated for 1 hour. Compound was added to Ramos cells in serum free media to a final concentration of 1, 0.1, 0.01, or 0.001 μM. Ramos cells were incubated with compound for 1 hour, washed again and resuspended in 100 ul serum-free media. Cells were then stimulated with 1 μg of goat F(ab′)2 Anti-Human IgM and incubated on ice for 10 minutes to activate B cell receptor signaling pathways. After 10 minutes, the cells were washed once with PBS and then lysed on ice with Invitrogen Cell Extraction buffer. 16 μg total protein from lysates was loaded on gels and blots were probed for phosphorylation of the BTK substrate PLCγ2. […] Additional dose response inhibition of BTK signaling with I-13 is depicted in FIG. 9.

[8] = biological target: T3, JAK3 (Homo sapiens, UniProt P52333); assay: Omnia assay for potency against JAK3; assay type: biochemical; settings: read-out: JAK3 Inhibition
T3 sequence (P52333 1-1124): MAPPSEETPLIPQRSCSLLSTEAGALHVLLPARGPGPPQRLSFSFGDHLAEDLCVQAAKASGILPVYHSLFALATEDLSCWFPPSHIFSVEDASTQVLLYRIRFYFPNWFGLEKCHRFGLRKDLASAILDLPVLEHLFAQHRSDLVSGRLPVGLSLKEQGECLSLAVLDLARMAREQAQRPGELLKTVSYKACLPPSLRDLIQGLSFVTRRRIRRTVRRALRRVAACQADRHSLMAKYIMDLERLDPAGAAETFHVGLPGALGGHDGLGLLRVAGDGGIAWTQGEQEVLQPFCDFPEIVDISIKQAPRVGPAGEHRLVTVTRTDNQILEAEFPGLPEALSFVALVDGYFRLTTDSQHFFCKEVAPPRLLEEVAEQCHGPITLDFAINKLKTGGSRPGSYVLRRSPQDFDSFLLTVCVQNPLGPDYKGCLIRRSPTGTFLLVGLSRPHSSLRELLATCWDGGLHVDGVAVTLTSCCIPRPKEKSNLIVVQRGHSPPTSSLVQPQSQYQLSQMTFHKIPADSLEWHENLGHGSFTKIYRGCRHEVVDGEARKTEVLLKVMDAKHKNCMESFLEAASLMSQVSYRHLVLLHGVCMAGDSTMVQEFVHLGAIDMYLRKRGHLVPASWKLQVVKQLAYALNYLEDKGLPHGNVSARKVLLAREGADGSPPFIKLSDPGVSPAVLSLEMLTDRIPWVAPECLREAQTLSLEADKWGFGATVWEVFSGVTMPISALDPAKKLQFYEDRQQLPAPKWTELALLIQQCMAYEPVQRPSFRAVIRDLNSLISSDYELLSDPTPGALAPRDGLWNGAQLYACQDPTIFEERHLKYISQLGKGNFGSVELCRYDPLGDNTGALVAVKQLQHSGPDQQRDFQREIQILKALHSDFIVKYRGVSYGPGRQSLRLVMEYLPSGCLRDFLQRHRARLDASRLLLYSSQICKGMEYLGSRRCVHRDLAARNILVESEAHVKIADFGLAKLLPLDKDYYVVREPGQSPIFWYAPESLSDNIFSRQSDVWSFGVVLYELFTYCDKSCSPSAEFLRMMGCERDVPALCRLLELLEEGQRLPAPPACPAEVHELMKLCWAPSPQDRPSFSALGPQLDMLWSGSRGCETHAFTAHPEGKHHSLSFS
In short: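 Continuous-read Omnia kinase assay with 5 nM JAK3, 5 μM ATP (near apparent Km) and 5 μM Y12-Sox peptide in Tris pH 7.5/MgCl2 buffer; enzyme pre-incubated with compound 30 min at 27 °C. Fluorescence (ex360/em485) read over 60 min; initial velocities fitted against inhibitor concentration to give IC50.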

[9] = system: BTK in Ramos cells; assay: Washout experiment with Ramos cells for BTK activity; assay type: cell-based, human; settings: Ramos washout assay, 100 nM compound for 1 hour
Description: Ramos cells were serum starved for one hour in RPMI media+1% glutamine at 37° C. After starvation, Ramos cells were treated with 100 nM compound diluted in serum free RPMI media for 1 hour. After compound treatment, the media was removed and cells were washed with compound-free media. Subsequently, Ramos cells were washed every 2 hours and resuspended in fresh compound-free media. Cells were collected at specified timepoints, treated with 1 ug anti-human IgM (Southern Biotech cat #2022-01) for 10 minutes on ice to induce BCR signaling and then washed in PBS. Ramos cells were then lysed in Cell Extraction Buffer (Invitrogen FNN0011) supplemented with Roche complete protease inhibitor tablets (Roche 11697498001) and phosphatase inhibitors (Roche 04 906 837 001) and 18 ug total protein lysate was loaded in each lane. Inhibition of BTK kinase activity was assayed by measuring its substrate (PLCγ2) phosphorylation by western blot with phospho-specific antibodies from Cell Signaling Technologies cat#3871. FIG. 10 depicts the results of compound I-13 in the washout experiment at 0 hour, 4 hour, 6 hour, and 8 hour time points.

[10] = system: EGFR (ErbB1) in A431 human epidermoid carcinoma cells; assay: Washout experiment for EGFR activity in A431 cells; assay type: cell-based; settings: for enzyme inhibition after washout: A431 cells, 1 μM for 1 hr, EGF stimulation
Description: A431 human epidermoid carcinoma cells were grown in 6-well plates to 90% confluence and then incubated in serum-free media for 18 hr. Duplicate sets of cells were treated with 1 μM designated compound for 1 hr. One set of cells was then stimulated with 100 ng/ml EGF for 5 min, and extracts were made as described. The other set of cells was washed free of the compound with warmed compound-free medium, incubated for 2 hr, washed again, incubated another 2 hr, washed again, and then incubated another 2 hr washed again and incubated for additional 2 hr and then stimulated with EGF.

T1 sequence (P00533 25-1210): as the sequence (P00533 25-1210) above

IC50 [1] [nM]	IC50 [2] [nM]	inhibition at 0.01 µM [3] [%]	inhibition at 1 µM [4] [%]	inhibition at 1 µM [5] [%]	IC50 [6] [nM]	IC50 [7] [nM]	IC50 [8] [nM]	inhibition at 0.1 µM ([3]; @ 100 nM) [%]	inhibition at 1 µM [3] [%]	inhibition at 0.01 µM ([4]; @ 10 nM) [%]	inhibition at 0.1 µM ([4]; @ 100 nM) [%]	inhibition at 0.01 µM ([5]; @ 10 nM) [%]	inhibition at 0.1 µM ([5]; @ 100 nM) [%]	SMILES	BTK Inhibition Type [9]	enzyme inhibition after washout [10]	type of binding to ErbB1 (irreversible / reversible) ([10]; washout experiment, FIG. 2)
≤ 10	≤ 10	100	86	95	≤ 10	100 to 1000	≤ 10	–	–	–	–	–	–	C=CS(=O)(=O)Nc1cccc(Nc2cc(Nc3cccc(C)c3)ncn2)c1 [I-5, N-{3-[6-(3-methylphenylamino)-pyrimidin-4-ylamino]phenyl}-ethenesulfonamide]	–	–	–
≤ 10	10 to 100	53	89	100	10 to 100	–	100 to 1000	100	–	–	–	–	–	C=CS(=O)(=O)Nc1cccc(Nc2cc(Nc3ccc(OCc4cccc(F)c4)c(Cl)c3)ncn2)c1 [I-7, N-{3-[6-(3-chloro-4-(3-fluorophenyl)methoxy-phenylamino)-pyrimidin-4-ylamino]phenyl}-ethenesulfonamide]	–	–	–
≤ 10	10 to 100	–	–	–	10 to 100	–	10 to 100	–	98	24	87	26	93	C=CC(=O)Nc1cccc(Nc2cc(Nc3ccc(OCc4ccccn4)c(Cl)c3)ncn2)c1 [I-16, N-(3-(6-(3-chloro-4-(pyridin-2-ylmethoxy)phenylamino)pyrimidin-4-ylamino)phenyl)-2-propenamide]	–	–	–
≤ 10	10 to 100	–	89	94	≤ 10	≥ 1000	10 to 100	–	95	–	–	–	–	Cc1cccc(Nc2cc(Nc3cccc(NC(=O)/C=C/CN(C)C)c3)ncn2)c1 [I-17, (E)-N-{3-[6-(3-methylphenylamino)-pyrimidin-4-ylamino]phenyl}-4-dimethylamino-2-butenamide]	–	–	–
≤ 10	≤ 10	–	98	97	10 to 100	–	100 to 1000	–	96	–	–	–	–	CN(C)C/C=C/C(=O)Nc1cccc(Nc2cc(Nc3ccc(OCc4ccccn4)c(Cl)c3)ncn2)c1 [I-19, (E)-N-(3-(6-(3-chloro-4-(pyridin-2-ylmethoxy)phenylamino)-pyrmidin-4-ylamino)phenyl)-4-(dimethylamino)but-2-enamide]	–	–	–
≤ 10	–	–	–	–	≤ 10	≤ 10	10 to 100	–	–	–	–	–	–	CN(C)C/C=C/C(=O)Nc1cccc(Nc2cc(Oc3ccc(Oc4ccccc4)cc3)ncn2)n1 [I-82]	irreversible	–	–
≤ 10	–	–	–	–	1000 to 10000	–	≥ 10000	–	–	–	–	–	–	C=CC(=O)Nc1ccc(Nc2cc(Nc3cccc(Br)c3)ncn2)cc1 [I-93, N-(4-[6-(3-bromophenylamino)-pyrimidin-4-ylamino]phenyl)-2-propenamide]	–	washed away	reversibly binds to ErbB1
–	–	–	–	–	–	–	–	–	–	–	–	–	–	CCC(=O)Nc1cccc(Nc2cc(Nc3cccc(Br)c3)ncn2)c1 [I^R-3, N-{3-[6-(3-bromophenylamino)-pyrimidin-4-ylamino]phenyl}-propionamide, reference compound]	–	washed away	–
